In patent publication US6346539B1, “Treatment of skin conditions” (BTG International Limited, priority 1998, dated 2002):
Where two headings read alike, the source gives them in different places.

Legend:
melan-a cells = assay: Dendricity of melan-a cells by observation under microscope; format: cell-based, mouse; parameters: key: +++: highly dendritic; ++: moderately dendritic; +: weakly dendritic; −: no effect; conditions: for Dendricity: Table 7
Text: Effect on dendricity of melan-a cells by the test compounds was by observation under microscope. Dendricity is relevant to vitiligo since normal skin melanocytes have dendrites, but in vitiligo the melanocytes seem to lose these before they disappear from the patches.

mouse melan-a cells = assay: Melanocyte proliferant activity of piperine derivatives, SRB assay, 4 days, 10% FBS; format: cell-based; conditions: for activity at 1 µM / activity at 10 µM / activity at 25 µM / activity at 50 µM / activity at 100 µM: Mus musculus, Melan-a, 96 h; for Active at 10 μM? / More active than piperine at higher conc. (μM)? / Active at higher conc. (μM)?: overall summary; for More active than piperine at higher conc. (μM)?: concentrations at which more active than piperine; for Relative activity to piperine: (A-100) compound/(A-100) piperine; for Active at higher conc. (μM)?: concentrations at which active
Method: The plates were incubated at 37° C. in a 10% CO2, 90% air humidified atmosphere for the stated length of time. At the end of the incubation, an SRB assay was performed. Briefly, cells attached to the bottom of the plate were fixed by addition of cold trichloroacetic acid (TCA, 4° C., Aldrich, Dorset, UK) on the top of the growth medium (final TCA 20% w/v). The plate was placed at 4° C. for 1 hour before being gently washed five times with tap water. It was allowed to dry in air, or aided with a hair dryer to speed up the drying process, then 50 μl of 4% w/v SRB dissolved in 1% acetic acid in water was added to each well for 30 min. At the end of the staining period, unbound SRB was removed by washing 4 times with 1% acetic acid. The plate was air dried again, and 150 μl of 10 mM aqueous Tris base (Sigma-Aldrich Co. Ltd, Irvine, UK) was added into each well to solubilize the cell-bound dye.
Various piperine derivatives of formula (1) were synthesised and tested for melanocyte (mouse melan-a) proliferant activity in-vitro. Cells we re incubated with the test compound for 4 days, as previously for the mouse cells but with 10% FBS, after which the sulphorhodamine-B (SRB) assay was performed to determnine cell number SRB uptake was measured as optical density at 550 nm. The control assay was carried out on cells incubated without test compound. There were 2 or 3 series of experiments, each of which consisted of six replcate experiments.
Percentage cell growth was obtained with a given compound calculated as (optical density in the presence of the compound/control optical density)×100.
Melan-a cell proliferant activity for tested compounds was compared with that obtained with piperine. […] All figures are given with Standard Error of the Mean.

[1] = read-out: growth of melan-a cells as % of control, dose experiment
[2] = 10 μM, read-out: growth of melan-a cells as % of control, dose experiment
[3] = single concentration (10 μM), melan-a, ± SEM, read-out: Percentage cell growth (Repeated experiments)
[4] = single concentration (10 μM), melan-a

`O=C(/C=C/C=C/c1ccc2c(c1)OCO2)N1CCCC1` [RV-A01, 5-E,E-piperinoylpyrrolidine] was tested, and the Dendricity (melan-a cells; 10 μM) was “+++”, the “"cross-over" effect relative to piperine” value (mouse melan-a cells; 10 μM versus 50 μM) was “less active than piperine at 10 μM but more active at 50 μM” and the activity at 1 µM (mouse melan-a cells; [1]) was 109 ± 7%. It also gave an activity at 10 µM (mouse melan-a cells; [2]) of 122 ± 7%, an activity at 25 µM (mouse melan-a cells; [1]) of 142 ± 21% and an activity at 50 µM (mouse melan-a cells; [1]) of 186 ± 14%. For the same compound, the activity at 10 µM (mouse melan-a cells; [3]) was 183 ± 34%, the “Active at 10 μM?” value (mouse melan-a cells; melan-a) was “Yes” and the Stimulant activity (mouse melan-a cells; [4]) was “Positive”.

`O=C(/C=C/C=C/c1ccc2c(c1)OCO2)N1CCOCC1` [RV-A02, 5-E,E-piperinoyl morpholine] was tested, and the Dendricity (melan-a cells; 10 μM) was “+++”, the activity at 1 µM (mouse melan-a cells; [1]) was 125 ± 10% and the activity at 10 µM (mouse melan-a cells; [2]) was 167 ± 17%. For the same compound, the activity at 25 µM (mouse melan-a cells; [1]) was 171 ± 8%, the activity at 50 µM (mouse melan-a cells; [1]) was 168 ± 12% and the “Active at 10 μM?” value (mouse melan-a cells; melan-a) was “Yes”. The Stimulant activity (mouse melan-a cells; [4]) was “Positive”.

`O=C(/C=C/C=C/c1ccc2c(c1)OCO2)NCc1ccc2c(c1)OCO2` [RV-A04, 5-E,E-piperinoylpiperinolymine] was tested, and the “Dentricity, dose experiment” value (melan-a cells; 1 μM) was “−”, the “Dentricity, dose experiment” value (melan-a cells; 10 μM) was “+” and the “Dentricity, dose experiment” value (melan-a cells; 50 μM) was “+”. For the same compound, the Dendricity (melan-a cells; 10 μM) was “+”, the activity at 1 µM (mouse melan-a cells; [1]) was 101 ± 12% and the activity at 10 µM (mouse melan-a cells; [2]) was 138 ± 10%. The activity at 50 µM (mouse melan-a cells; [1]) was 150 ± 15%, the activity at 100 µM (mouse melan-a cells; [1]) was 71 ± 9% and the “Active at 10 μM?” value (mouse melan-a cells; melan-a) was “Yes^a”. The Stimulant activity (mouse melan-a cells; [4]) was “Non- significant here, but positive in dose response test”.

With `CCCCCCNC(=O)/C=C/C=C/c1ccc2c(c1)OCO2` [RV-A05, 5-E,E-piperinoylhexylamine] the Dendricity (melan-a cells; 10 μM) was “+++”, the activity at 1 µM (mouse melan-a cells; [1]) was 155 ± 9% and the activity at 10 µM (mouse melan-a cells; [2]) was 188 ± 13%. For the same compound, the activity at 25 µM (mouse melan-a cells; [1]) was 178 ± 18%, the activity at 50 µM (mouse melan-a cells; [1]) was 178 ± 8% and the “More active than piperine at higher conc. (μM)?” value (shortened to “More active than piperine”) (mouse melan-a cells) was “No”. For the same compound, the “Active at 10 μM?” value (mouse melan-a cells; melan-a) was “Yes” and the Stimulant activity (mouse melan-a cells; [4]) was “Positive”.

With `CC(C)CNC(=O)/C=C/C=C/c1ccc2c(c1)OCO2` [RV-A06, Piperlonguminine] the Dendricity (melan-a cells; 10 μM) was “+++”, the activity at 1 µM (mouse melan-a cells; [1]) was 134 ± 7% and the activity at 10 µM (mouse melan-a cells; [2]) was 188 ± 14%. The activity at 25 µM (mouse melan-a cells; [1]) was 172 ± 15%, the activity at 50 µM (mouse melan-a cells; [1]) was 135 ± 24% and the activity at 10 µM (mouse melan-a cells; [3]) was 147 ± 66%. The “More active than piperine” value (mouse melan-a cells) was “No”, the “Active at 10 μM?” value (mouse melan-a cells; melan-a) was “Yes” and the Stimulant activity (mouse melan-a cells; [4]) was “Positive”.

For `CNC(=O)/C=C/C=C/c1ccc2c(c1)OCO2` [RV-A07, 5-E,E-piperinoylmethylamine], the “Dentricity, dose experiment” value (melan-a cells; 1 μM) was “++”, the “Dentricity, dose experiment” value (melan-a cells; 10 μM) was “++” and the “Dentricity, dose experiment” value (melan-a cells; 50 μM) was “+”. The “Dentricity, dose experiment” value (melan-a cells; 100 μM) was “+”, the Dendricity (melan-a cells; 10 μM) was “++” and the “Relative activity to piperine” value (mouse melan-a cells; 10 μM) was 0.6. For the same compound, the activity at 1 µM (mouse melan-a cells; [1]) was 140 ± 12%, the activity at 10 µM (mouse melan-a cells; [2]) was 170 ± 24% and the activity at 50 µM (mouse melan-a cells; [1]) was 71 ± 5%. The activity at 100 µM (mouse melan-a cells; [1]) was 46 ± 2%, the activity at 10 µM (mouse melan-a cells; [3]) was 170 ± 24% and the “Active at higher conc. (μM)?” value (mouse melan-a cells) was “No”. For the same compound, the “More active than piperine” value (mouse melan-a cells) was “No”, the “Active at 10 μM?” value (mouse melan-a cells; melan-a) was “Yes” and the Stimulant activity (mouse melan-a cells; [4]) was “Positive”.

In the case of `CCNC(=O)/C=C/C=C/c1ccc2c(c1)OCO2` [RV-A08, 5-E,E-piperinoylethylamine], the “Dentricity, dose experiment” value (melan-a cells; 1 μM) is reported as “++”, the “Dentricity, dose experiment” value (melan-a cells; 10 μM) is reported as “+++” and the “Dentricity, dose experiment” value (melan-a cells; 50 μM) is reported as “+”. The “Dentricity, dose experiment” value (melan-a cells; 100 μM) was “+”, the Dendricity (melan-a cells; 10 μM) was “+++” and the “Relative activity to piperine” value (mouse melan-a cells; 10 μM) was 0.73. The activity at 1 µM (mouse melan-a cells; [1]) was 139 ± 27%, the activity at 10 µM (mouse melan-a cells; [2]) was 200 ± 14% and the activity at 50 µM (mouse melan-a cells; [1]) was 81 ± 12%. The activity at 100 µM (mouse melan-a cells; [1]) was 62 ± 13%, the activity at 10 µM (mouse melan-a cells; [3]) was 200 ± 14% and the “Active at higher conc. (μM)?” value (mouse melan-a cells) was “No”. For the same compound, the “More active than piperine” value (mouse melan-a cells) was “No”, the “Active at 10 μM?” value (mouse melan-a cells; melan-a) was “Yes” and the Stimulant activity (mouse melan-a cells; [4]) was “Positive”.

In the case of `CC(C)NC(=O)/C=C/C=C/c1ccc2c(c1)OCO2` [RV-A09, 5-E,E-piperinoylisopropylamine], the “Dentricity, dose experiment” value (melan-a cells; 1 μM) is reported as “+++”, the “Dentricity, dose experiment” value (melan-a cells; 10 μM) is reported as “+++” and the “Dentricity, dose experiment” value (melan-a cells; 50 μM) is reported as “+”. For the same compound, the “Dentricity, dose experiment” value (melan-a cells; 100 μM) was “+”, the Dendricity (melan-a cells; 10 μM) was “+++” and the “Relative activity to piperine” value (mouse melan-a cells; 10 μM) was 0.76. For the same compound, the activity at 1 µM (mouse melan-a cells; [1]) was 187 ± 15%, the activity at 10 µM (mouse melan-a cells; [2]) was 224 ± 19% and the activity at 50 µM (mouse melan-a cells; [1]) was 85 ± 5%. The activity at 100 µM (mouse melan-a cells; [1]) was 42 ± 6%, the activity at 10 µM (mouse melan-a cells; [3]) was 224 ± 19% and the “Active at higher conc. (μM)?” value (mouse melan-a cells) was “No”. The “More active than piperine” value (mouse melan-a cells) was “No”, the “Active at 10 μM?” value (mouse melan-a cells; melan-a) was “Yes” and the Stimulant activity (mouse melan-a cells; [4]) was “Positive”.

`COC(=O)/C=C/c1ccc2c(c1)OCO2` [RV-BB1, 3-trans-benzo-1,3-dioxol-5-ylacrylic acid methyl ester] was tested, and the “Active at 10 μM?” value (mouse melan-a cells; melan-a) was “No^b” and the Stimulant activity (mouse melan-a cells; [4]) was “Non- significant”.
